# Measurements as given in ChEMBL document CHEMBL1857833, “Screening and optimization of specific chemical series against human African Trypanosomiasis (HAT)”.
# Values joined by “and” are separate entries in the source; they are usually repeats but may differ in a detail not shown here. Identical values can stand only once.
# Assays:
# [1] = (§1) DNDI: Cytotoxicity against L929 mouse fibroblasts, CYTO-SP, 24 hour; type: toxicity, cell-based; conditions: mouse, L929 mouse fibroblasts
# L929 [2] = assay: as §1; type: toxicity, cell-based; conditions: l929
# [3] = (§2) DNDI: Cytotoxicity against L929 mouse fibroblasts, 72 hour.; type: toxicity, cell-based; conditions: mouse, L929 mouse fibroblasts
# Trypanosoma brucei [4] = assay: DNDI: Inhibition of Human African Trypanosomiasis, Cross 22, in vitro; type: functional, organism-based
# Trypanosoma brucei [5] = assay: DNDI: Inhibition of Human African Trypanosomiasis, EATRO 110, in vitro; type: functional, organism-based
# Trypanosoma brucei [6] = assay: DNDI: Inhibition of Human African Trypanosomiasis, SBRI 427, in vitro; type: functional, organism-based
# [7] = DNDI: Lipophilicity measured in Chromatographic hydrophobicity index (CHI) assay, pH 7.4; type: physicochemical; conditions: buffer
# [8] = DNDI: half life in human liver microsomes at a concentration of 10uM; type: ADME, Microsome
# [9] = DNDI: in vitro intrinsic clearance in human liver microsomes at a concentration of 10uM; type: ADME, Microsome
# [10] = DNDI: in vitro intrinsic clearance in mouse liver microsomes at a concentration of 10uM; type: ADME, Microsome; conditions: read-out: CLint in vitro
# [11] = DNDI: half life in mouse liver microsomes at a concentration of 10uM; type: ADME, Microsome
# [12] = DNDI: Solubility in phosphate buffered saline at pH7.4 measured by optical density (turbidimetry) at room temperature (OD-RT); type: physicochemical; conditions: pH 7.4
# [13] = mouse, microsomes, 1 µM
# Description: DNDI: in vitro intrinsic clearance in mouse liver microsomes at a concentration of 1uM
# in vitro [14] = conditions: mouse, t (1 / 2)
# Description: DNDI: half life in mouse liver microsomes at a concentration of 1uM
# Trypanosoma cruzi = assay: DNDI: Inhibition of Chagas Disease parasite Trypanosoma cruzi (Tulahuen LacZ, Clone C4), in vitro.; type: functional, organism-based
# [15] = DNDI: Cytotoxicity against L-6 rat myoblasts from skeletal muscle cells; type: toxicity, cell-based, L6; conditions: L-6 rat skeletal muscle myoblasts
# [16] = tested on: Trypanosoma brucei rhodesiense; assay: DNDI: Inhibition of Human African Trypanosomiasis (HAT), STIB 900, in vitro; type: functional, organism-based
# Trypanosoma brucei [17] = assay: DNDI: Mean survival time in days (MSD) of mice after intraperitoneal injection of Human African Trypanosomiasis (HAT), EATRO 110, in vivo at 20 mg/kg/day for 4 days.; type: functional, Mus musculus
# Trypanosoma brucei [18] = assay: DNDI: Mean survival time in days (MSD) of mice after intraperitoneal injection of Human African Trypanosomiasis (HAT), EATRO 110, in vivo at 5 mg/kg/day for 4 days.; type: functional, Mus musculus
# Leishmania donovani = assay: DNDI: Inhibition of formation of Leishmania donovani (strain MHOM/ET/67/L82) axenic amastigotes, in vitro.; type: functional, organism-based
# Plasmodium falciparum = assay: DNDI: Inhibition of the malaria parasite Plasmodium falciparum, in vitro; type: functional, organism-based; conditions: K1
# [19] = DNDI: Solubility in phosphate buffered saline at pH7.4 measured by nephelometry at room temperature (NEPH-RT); type: physicochemical; conditions: pH 7.4
# in vitro [20] = conditions: human, microsomes, t (1 / 2)
# Description: DNDI: half life in human liver microsomes at a concentration of 1uM
# in vitro [21] = conditions: human, microsomes, CLint in vitro
# Description: DNDI: in vitro intrinsic clearance in human liver microsomes at a concentration of 1uM
# MDR1 (ABCB1) [22] = target: T1, MDR1 (ABCB1) (Homo sapiens, UniProt P08183); assay: DNDI: % of compound recovered from apical to basolateral permeability assay in MDCK cells transfected with human MDR1; type: ADME, cell-based, Canis lupus familiaris; conditions: dog
# T1 sequence (P08183 whole entry): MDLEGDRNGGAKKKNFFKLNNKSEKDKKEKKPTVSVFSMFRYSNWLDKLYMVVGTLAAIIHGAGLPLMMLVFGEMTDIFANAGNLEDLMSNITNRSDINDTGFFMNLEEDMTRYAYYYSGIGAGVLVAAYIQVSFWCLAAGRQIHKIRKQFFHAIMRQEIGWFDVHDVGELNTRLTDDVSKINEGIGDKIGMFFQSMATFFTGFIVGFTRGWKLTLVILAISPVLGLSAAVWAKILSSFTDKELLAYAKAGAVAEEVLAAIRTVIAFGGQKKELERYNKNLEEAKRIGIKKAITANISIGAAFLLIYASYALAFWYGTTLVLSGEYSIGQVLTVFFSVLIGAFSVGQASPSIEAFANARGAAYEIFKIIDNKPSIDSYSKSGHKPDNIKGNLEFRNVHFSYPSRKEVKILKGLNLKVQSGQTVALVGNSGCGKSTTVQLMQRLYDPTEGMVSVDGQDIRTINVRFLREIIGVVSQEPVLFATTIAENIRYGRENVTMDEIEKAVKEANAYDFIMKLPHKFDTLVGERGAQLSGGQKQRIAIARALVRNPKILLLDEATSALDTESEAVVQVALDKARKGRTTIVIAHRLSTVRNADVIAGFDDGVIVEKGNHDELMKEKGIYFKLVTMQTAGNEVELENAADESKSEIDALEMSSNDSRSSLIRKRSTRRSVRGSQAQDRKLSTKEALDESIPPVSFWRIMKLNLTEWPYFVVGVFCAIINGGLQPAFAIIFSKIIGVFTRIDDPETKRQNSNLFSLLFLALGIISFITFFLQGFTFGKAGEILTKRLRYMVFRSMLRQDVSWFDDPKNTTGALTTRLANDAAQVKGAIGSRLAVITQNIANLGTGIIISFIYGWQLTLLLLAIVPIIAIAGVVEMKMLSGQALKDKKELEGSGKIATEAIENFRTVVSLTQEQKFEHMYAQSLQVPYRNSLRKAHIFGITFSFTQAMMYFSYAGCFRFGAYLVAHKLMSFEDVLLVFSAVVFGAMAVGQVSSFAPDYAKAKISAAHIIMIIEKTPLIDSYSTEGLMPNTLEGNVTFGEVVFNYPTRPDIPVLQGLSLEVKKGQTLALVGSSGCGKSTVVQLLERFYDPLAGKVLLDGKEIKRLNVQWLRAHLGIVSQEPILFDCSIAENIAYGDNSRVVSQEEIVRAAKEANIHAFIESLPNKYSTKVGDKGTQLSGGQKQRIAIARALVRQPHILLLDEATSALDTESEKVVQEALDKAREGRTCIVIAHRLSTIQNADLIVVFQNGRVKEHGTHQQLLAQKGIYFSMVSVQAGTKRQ
# MDR1 (ABCB1) [23] = target: T1, MDR1 (ABCB1); assay: DNDI: Apparent permeability from apical to basolateral side of the MDCK cell transfected with human MDR1; type: ADME, cell-based, Canis lupus familiaris; conditions: dog
# MDR1 (ABCB1) [24] = target: T1, MDR1 (ABCB1); assay: DNDI: Apparent permeability from basolateral to apical side of the MDCK cell transfected with human MDR1 after 60 mins at a concentration of 3uM; type: ADME, cell-based, Canis lupus familiaris; conditions: dog
# MDR1 (ABCB1) [25] = target: T1, MDR1 (ABCB1); assay: DNDI: % of compound recovered from basolateral to apical permeability assay in MDCK cells transfected with human MDR1; type: ADME, cell-based, Canis lupus familiaris; conditions: dog
# MDR1 (ABCB1) [26] = target: T1, MDR1 (ABCB1); assay: DNDI: Efflux ratio for permeability from basolateral to apical side to apical to basolateral side of MDCK cells transfected with human MDR1; type: ADME, cell-based, Canis lupus familiaris; conditions: dog, read-out: B-A/A-B
# [27] = DNDI: half-life in mouse S9 microsomes at a concentration of 1uM; type: ADME, subcellular, Liver, S9 fraction
# [28] = DNDI: half-life in mouse S9 microsomes at a concentration of 10uM; type: ADME, subcellular, Liver, S9 fraction
# L929 [29] = assay: as §2; type: toxicity, cell-based; conditions: l929
# [30] = Trypanosoma brucei, SBRI 427, read-out: IC50
IC50 (Trypanosoma brucei [4]) [µg/mL],IC50 (Trypanosoma brucei [6]),chromatographic logD [7],half-life at 10 µM [8] [h],CLint in vitro [9] [µL/min/mg],microsomal CLint at 10 µM [10] [µL/min/mg],half-life at 10 µM [11] [h],solubility kinetic [12] [µM],CLint in vitro [13] [µL/min/mg],IC50 (Trypanosoma brucei [6]; [30]) [µg/mL],Compound,IC50 at 24 h [1] [µg/mL],IC50 at 72 h [3] [µg/mL],solubility kinetic [19] [µM],further results
1.72,1.07 ug/ml [middle of 5 runs],5.22,2.9,17,121,0.4,6.3,207,–,CCOc1ccc(-c2nc(CNC3C[C@@H]4C[C@H]([C@H]3C)C4(C)C)co2)cc1 (some centres not stated),> 50,3.51,–,IC50 (L929 [2]): 28.6 µg/mL; IC50 (Trypanosoma brucei [5]): 1.16 µg/mL; half-life at 1 µM (in vitro [14]; liver microsomes): 0.0667 h
–,–,–,–,–,–,–,–,–,–,CCCCCC(C)NCc1coc(-c2ccccc2OCC)n1 (configuration not stated),27,7.79,–,IC50 (L929 [2]): 38.6 µg/mL
1.57,1.47 µg/mL and 1.38 µg/mL,5.5,–,–,35,1.35,0.8,86,1.18,CCOc1ccc(-c2nc(CNC[C@@H]3CC[C@H]4C[C@@H]3C4(C)C)co2)cc1,45.2,3.26,–,"IC50 (Trypanosoma brucei [5]): 0.71 µg/mL; recovery (MDR1 (ABCB1) [22]): 21%; Papp A→B (MDR1 (ABCB1) [23]): 8.16 ×10⁻⁶ cm/s; Papp B→A at 1 h, 3 µM (MDR1 (ABCB1) [24]): 6.74 ×10⁻⁶ cm/s; recovery (MDR1 (ABCB1) [25]): 42%; efflux ratio (MDR1 (ABCB1) [26]): 0.8; half-life at 1 µM (in vitro [14]; liver microsomes): 0.167 h"
–,–,–,–,–,–,–,–,–,0.583,Fc1ccc(-c2cc3nc(-c4ccccc4)cc(NC4CCNC4)n3n2)cc1 (configuration not stated),–,1.39,–,half-life at 1 µM [27]: 1.39 h; half-life at 10 µM [28]: 2.82 h
–,–,4.98,–,–,–,–,–,–,0.422,Fc1ccc(-c2cc3nc(-c4ccccc4)cc(N4CCNCC4)n3n2)cc1,–,0.73,3,half-life at 1 µM [27]: 1.28 h; half-life at 10 µM [28]: 3.68 h
–,–,4.56,1.3,37,36,1.35,12.5,24,1.07,CCCCCC(C)NCc1coc(-c2ccc(OC(C)C)cc2)n1 (configuration not stated),> 50,2.58,–,IC50 (L929 [29]): 3.42 µg/mL; half-life at 1 µM (in vitro [14]; microsomes): 0.583 h

Compound,IC50 (Trypanosoma brucei [4]) [µg/mL],IC50 (Trypanosoma brucei [6]),chromatographic logD [7],half-life at 10 µM [8] [h],CLint in vitro [9] [µL/min/mg],microsomal CLint at 10 µM [10] [µL/min/mg],half-life at 10 µM [11] [h],solubility kinetic [12] [µM],CLint in vitro [13] [µL/min/mg],IC50 (Trypanosoma brucei [6]; [30]) [µg/mL],IC50 at 24 h [1] [µg/mL],IC50 at 72 h [3] [µg/mL],solubility kinetic [19] [µM],further results
O/N=C(\NCC1CC1)c1ccccc1-c1ccccc1,–,–,4.04,10.6,5,117,0.417,> 200,93,1.15,> 50,> 10,> 200,IC50 (Trypanosoma cruzi): > 30 µg/mL; IC50 [15]: 72.3 µg/mL; IC50 [16]: 8.1 µg/mL; MSD (Trypanosoma brucei [17]): 1 days; MSD (Trypanosoma brucei [18]): 4 days; IC50 (Leishmania donovani): 32.3 µg/mL; logD [7]: 3.96; IC50 (Plasmodium falciparum): 3.14 µg/mL; half-life at 1 µM (in vitro [14]; microsomes): 0.15 h
CCCCc1ccc(-c2nc(CNC3CCCCCC3)co2)cc1,0.4,0.18 µg/mL and 0.33 µg/mL,5.49,–,–,–,–,–,–,0.36,> 50,1.23,13,IC50 (Trypanosoma cruzi): 1.43 µg/mL; IC50 [15]: 2.85 µg/mL; IC50 [16]: 0.383 µg/mL; MSD (Trypanosoma brucei [17]): 3.5 days; MSD (Trypanosoma brucei [18]): 4 days; IC50 (Leishmania donovani): 10.1 µg/mL; IC50 (Plasmodium falciparum): 0.739 µg/mL; half-life at 1 µM (in vitro [20]): 0.8 h; microsomal CLint at 1 µM (in vitro [21]): 18 µL/min/mg
